The compounds below were run against T1, human PAR4 (Homo sapiens, UniProt Q96RI0) (assay: PAR4 FLIPR assay: antagonism of agonist-peptide-induced calcium mobilization in PAR4-expressing HEK293 cells). Conditions: H-Ala-Phe(4-F)-[…]NH2-induced intracellular calcium mobilization, 11-point curves.
T1 construct: expressed in transfected cells; host or cells: HEK293 PAR4 Clone 1.2A (BMS Arctic ID 383940)
T1 sequence (Q96RI0 18-385): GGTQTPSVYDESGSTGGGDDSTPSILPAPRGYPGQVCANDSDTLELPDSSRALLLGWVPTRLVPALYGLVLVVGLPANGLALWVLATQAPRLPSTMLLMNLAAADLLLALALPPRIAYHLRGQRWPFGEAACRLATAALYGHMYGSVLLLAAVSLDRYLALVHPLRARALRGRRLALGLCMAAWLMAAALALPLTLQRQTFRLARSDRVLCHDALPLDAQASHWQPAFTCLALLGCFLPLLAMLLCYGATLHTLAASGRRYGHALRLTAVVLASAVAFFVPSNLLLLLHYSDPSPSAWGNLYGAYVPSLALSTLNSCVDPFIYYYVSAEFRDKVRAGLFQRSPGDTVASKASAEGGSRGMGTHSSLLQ
Assay type: cell-based

Compound	IC50
COCc1cnc2c(-c3nc4c(C#N)cc(OC)cc4s3)cc(C)cc2n1 [Example 103, 6-methoxy-2-(2-(methoxymethyl)-7-methylquinoxalin-5-yl)benzo[d]thiazole-4-carbonitrile]	2.5 nM
C#Cc1cc(-c2nc3c(C)cc(OCCNS(=O)(=O)c4ccc(F)cc4)cc3s2)c2ncc(OC)nc2c1 [Example 230, N-(2-((2-(7-ethynyl-2-methoxyquinoxalin-5-yl)-4-methylbenzo[d]thiazol-6-yl)oxy)ethyl)-4-fluorobenzenesulfonamide]	2.2 nM
Cc1cc(-c2nc3ccc(OCc4ccccc4)cc3s2)c2ncc(OC(F)F)nc2c1 [Example 7, 6-(benzyloxy)-2-(2-(difluoromethoxy)-7-methylquinoxalin-5-yl)benzo[d]thiazole]	800 nM
Cc1cc(-c2nc3c(C)cc(OCCNS(=O)(=O)c4ccc(F)cc4)cc3s2)c2ncc(OC3CC3)nc2c1 [Example 33, N-(2-((2-(2-cyclopropoxy-7-methylquinoxalin-5-yl)-4-methylbenzo[d]thiazol-6-yl)oxy)ethyl)-4-fluorobenzenesulfonamide]	120 nM
COc1cnc2c(-c3nc4c(s3)CC(C)(C)CC4)cc(C)cc2n1 [Example 141, 2-(2-methoxy-7-methylquinoxalin-5-yl)-6,6-dimethyl-4,5,6,7-tetrahydrobenzo[d]thiazole]	80 nM
COc1ccc2nc(-c3cc(C)cc4nc(OC(F)F)cnc34)sc2n1 [Example 23, 2-(2-(difluoromethoxy)-7-methylquinoxalin-5-yl)-5-methoxythiazolo[5,4-b]pyridine]	5.3 nM
COCc1cnc2c(-c3nc4c(Cl)cc(OCCNS(=O)(=O)c5ccccc5)cc4s3)cc(C)cc2n1 [Example 99, N-(2-(4-chloro-2-(2-(methoxymethyl)-7-methylquinoxalin-5-yl)benzo[d]thiazol-6-yloxy)ethyl)benzenesulfonamide]	0.6 nM
COc1cnc2c(-c3cc4cc(OCCOC(=O)Nc5ccnc(C)c5)c(F)cc4o3)cc(C)cc2n1 [Example 123, 2-((6-fluoro-2-(2-methoxy-7-methylquinoxalin-5-yl)benzofuran-5-yl)oxy)ethyl (2-methylpyridin-4-yl)carbamate]	1.5 nM
COc1cncc2nc(-c3cc(C)cc4nc(OC(F)F)cnc34)sc12 [Example 24, 2-(2-(difluoromethoxy)-7-methylquinoxalin-5-yl)-7-methoxythiazolo[4,5-c]pyridine]	2 nM
C=Cc1cc(-c2nc3c(C)cc(OCCNS(=O)(=O)c4ccc(F)cc4)cc3s2)c2ncc(COC)nc2c1 [Example 234, 4-fluoro-N-(2-((2-(2-(methoxymethyl)-7-vinylquinoxalin-5-yl)-4-methylbenzo[d]thiazol-6-yl)oxy)ethyl)benzenesulfonamide]	1.4 nM
COc1cnc2c(-c3nc4c(Cl)cc(OCCNS(=O)(=O)c5ccc(F)cc5)cc4s3)cc(C)cc2n1 [Example 28, N-(2-((4-chloro-2-(2-methoxy-7-methylquinoxalin-5-yl)benzo[d]thiazol-6-yl)oxy)ethyl)-4-fluorobenzenesulfonamide]	3 nM
COc1cnc2c(-c3nc4c(F)c(F)c(OC)cc4s3)cc(CO)cc2n1 [Example 220, (8-(4,5-difluoro-6-methoxybenzo[d]thiazol-2-yl)-3-methoxyquinoxalin-6-yl)methanol]	2.6 nM
COc1cnc2c(-c3nc4ccc(OCCNS(=O)(=O)c5ccccc5)cc4s3)cc(C)cc2n1 [Example 72, N-(2-(2-(2-methoxy-7-methylquinoxalin-5-yl)benzo[d]thiazol-6-yloxy)ethyl)benzenesulfonamide]	1 nM
COc1cnc2c(-c3nc4cc(F)c(OC)cc4s3)cc(CO)cc2n1 [Example 222, (8-(5-fluoro-6-methoxybenzo [d]thiazol-2-yl)-3-methoxyquinoxalin-6-yl)methanol]	1 nM
COc1cnc2c(-c3nc4c(s3)CC(CCO)C4)cc(C)cc2n1 (centres unmarked) [Example 142, 2-(2-(2-methoxy-7-methylquinoxalin-5-yl)-5,6-dihydro-4H-cyclopenta[d]thiazol-5-yl) ethanol]	5.6 nM
COc1cnc2c(-c3nc4c(C)cc(OCCOC(=O)Nc5cccnc5)nc4s3)cc(C)cc2n1 [Example 196, 2-((2-(2-methoxy-7-methylquinoxalin-5-yl)-7-methylthiazolo[5,4-b]pyridin-5-yl)oxy)ethyl pyridin-3-ylcarbamate]	2.3 nM
COc1ccc2nc(-c3cc(CO)cc4nc(OC)cnc34)sc2c1 [Example 127]	8.3 nM

Other lines, results leading:

IC50	Compound
1 nM	COc1cnc2c(-c3nc4cc(F)c(O[C@@H](C)[C@@H](C)OC(=O)Nc5cnc(C)nc5)cc4s3)cc(CF)cc2c1 [Example 654, (2R,3S)-3-((5-fluoro-2-(6-(fluoromethyl)-3-methoxyquinolin-8-yl)benzo[d]thiazol-6-yl)oxy)butan-2-yl (2-methylpyrimidin-5-yl)carbamate]
350 nM	COc1cnc2c(-c3nc4c(Cl)c(F)c(OC[C@H]5CNC(=O)O5)cc4s3)cc(C)cc2n1 [Example 622, (R)-5-(((4-chloro-5-fluoro-2-(2-methoxy-7-methylquinoxalin-5-yl)benzo[d]thiazol-6-yl)oxy)methyl)oxazolidin-2-one]
0.5 nM	COc1cnc2c(-c3nc4cc(F)c(O[C@@H](C)[C@@H](C)OC(=O)Nc5cnc(N6CCOCC6)nc5)cc4s3)cc(C)cc2n1 [Example 608, (2R,3S)-3-((5-fluoro-2-(2-methoxy-7-methylquinoxalin-5-yl)benzo[d]thiazol-6-yl)oxy)butan-2-yl (2-morpholinopyrimidin-5-yl)carbamate]
1400 nM	COc1cc(C(C)(C)O)c2nc(-c3cc(C)cc4nc(OC)cnc34)sc2c1 [Example 627, 2-(6-methoxy-2-(2-methoxy-7-methylquinoxalin-5-yl)benzo[d]thiazol-4-yl)propan-2-ol]
2.7 nM	COc1cnc2c(-c3nc4cc(F)c(OC[C@@H](C)OC(=O)Nc5ccncc5)cc4s3)cc(C)cc2n1 [Example 349, (R)-1-((5-fluoro-2-(2-methoxy-7-methylquinoxalin-5-yl)benzo[d]thiazol-6-yl)oxy)propan-2-yl pyridin-4-ylcarbamate]
5.2 nM	COc1cnc2c(-c3nc4c(C)c(F)c(OC)cc4s3)cc(C)cc2n1 [Example 294, 5-fluoro-6-methoxy-2-(2-methoxy-7-methylquinoxalin-5-yl)-4-methylbenzo[d]thiazole]
1.1 nM	COc1cnc2c(-c3nc4c(C)cc(OC[C@@H](C)OC(=O)Nc5cccnc5)nc4s3)cc(C)cc2n1 [Example 733, (R)-1-((2-(2-methoxy-7-methylquinoxalin-5-yl)-7-methylthiazolo[5,4-b]pyridin-5-yl)oxy)propan-2-yl pyridin-3-ylcarbamate]
1.5 nM	COc1cnc2c(-c3nc4cc(F)c(O[C@@H](C)[C@@H](C)OC(=O)Nc5ccc(C(=O)NCCC(C)(C)O)nc5)cc4s3)cc(C)cc2n1 [Example 464, (2R,3S)-3-((5-fluoro-2-(2-methoxy-7-methylquinoxalin-5-yl)benzo[d]thiazol-6-yl)oxy)butan-2-yl (6-((3-hydroxy-3-methylbutyl)carbamoyl)pyridin-3-yl)carbamate]
1.2 nM	COc1cnc2c(-c3nc4cc(F)c(O[C@@H](C)[C@@H](C)OC(=O)Nc5ccc(OCC(F)(F)CO)nc5)nc4s3)cc(C)cc2n1 [Example 726, (2R,3S)-3-((6-fluoro-2-(2-methoxy-7-methylquinoxalin-5-yl)thiazolo[5,4-b]pyridin-5-yl)oxy)butan-2-yl (6-(2,2-difluoro-3-hydroxypropoxy)pyridin-3-yl)carbamate]
1.1 nM	COCc1cnc2c(-c3nc4cc(F)c(OC(C)C)cc4s3)cc(C)cc2n1 [Example 329, 5-fluoro-6-isopropoxy-2-(2-(methoxymethyl)-7-methylquinoxalin-5-yl)benzo[d]thiazole]
4.6 nM	COc1cnc2c(-c3nc4c(F)c(F)c(OC)cc4s3)cc(C)cc2n1 [Example 278, 4,5-difluoro-6-methoxy-2-(2-methoxy-7-methylquinoxalin-5-yl)benzo[d]thiazole]
7 nM	COc1cnc2c(-c3nc4c(Cl)c(F)c(OC[C@@H](C)OC(=O)Nc5cncnc5)cc4s3)cc(C)cc2n1 [Example 591, (R)-1-((4-chloro-5-fluoro-2-(2-methoxy-7-methylquinoxalin-5-yl)benzo[d]thiazol-6-yl)oxy)propan-2-yl pyrimidin-5-ylcarbamate]
1.4 nM	COc1cnc2c(-c3nc4cc(F)c(O[C@@H](C)[C@@H](C)OC(=O)Nc5cnc(O[C@H](C)CO)nc5)nc4s3)cc(C)cc2n1 [Example 722, (2R,3S)-3-((6-fluoro-2-(2-methoxy-7-methylquinoxalin-5-yl)thiazolo[5,4-b]pyridin-5-yl)oxy)butan-2-yl (2-(((R)-1-hydroxypropan-2-yl)oxy)pyrimidin-5-yl)carbamate]
2 nM	COc1cnc2c(-c3nc4cc(F)c(OC[C@@H](C)OC(=O)Nc5ccc(OCC(F)(F)CO)nc5)cc4s3)cc(C)cc2n1 [Example 574, (R)-1-((5-fluoro-2-(2-methoxy-7-methylquinoxalin-5-yl)benzo[d]thiazol-6-yl)oxy)propan-2-yl (6-(2,2-difluoro-3-hydroxypropoxy)pyridin-3-yl)carbamate]
5.3 nM	CCOc1cnc2c(-c3nc4cc(F)c(O[C@@H](C)[C@@H](C)OC(=O)Nc5cnc(OC[C@H](C)O)nc5)cc4s3)cc(C)cc2n1 [Example 582, (2R,3S)-3-((2-(2-ethoxy-7-methylquinoxalin-5-yl)-5-fluorobenzo[d]thiazol-6-yl)oxy)butan-2-yl (2-((S)-2-hydroxypropoxy)pyrimidin-5-yl)carbamate]
